Test results as given in ChEMBL document CHEMBL4477173, “Additional Insights into the Obtusallene Family: Components of Laurencia marilzae” (2016).

Tested on: HepG2
Test: Induction of apoptosis in human HepG2 cells assessed as apoptotic cells at 50 uM by Annexin V-FITC/propidium iodide staining based flow cytometry relative to control
Format: functional

SMILES | Activity [%]
C[C@@H]1O[C@@H](C=C=CBr)C[C@H]2O[C@@H](C[C@H]2Cl)[C@@H](Br)C[C@@H]2O[C@@H]12 | >70
C[C@H]1/C=C/C[C@H](Br)[C@@H]2C[C@@H](Cl)[C@@H](C[C@H](C=C=CBr)O1)O2 | 47
C[C@@H]1O[C@@H](C=C=CBr)C[C@H]2O[C@@H](C[C@H]2Cl)[C@@H](Br)C[C@H]2O[C@H]12 | >65
